Consider 13 molecules from PMC9323797, “4-Substituted Thieno[3,2-d]pyrimidines as Dual-Stage Antiplasmodial Derivatives” (Pharmaceuticals, 2022).

As a reminder, the CC50 is the concentration at which the toxic effect on the cells reaches its halfway point. High values mean lower toxicity to the cells, low ones greater toxicity to the cells. One may read the EC50 as the concentration giving half of the maximal effect. Broadly, the IC50 is the concentration that inhibits the measured activity by half.

Read-outs that look alike come from different tables or passages of the source. Some results are limits rather than exact numbers.

Series [1] is described as follows: Cytotoxic evaluation on HepG2 cell line (MTT, 72 h). It is filed as cell-based, human. Conditions: HepG2 cells (hepatocarcinoma cell line, ATCC HB-8065); human hepatoma cell line HepG2, MTT, 72 h, mean ± SD of three independent experiments. The protocol:
(§1) The HepG2 cell line (hepatocarcinoma cell line purchased from ATCC, ref HB-8065) was maintained at 37 °C, 5% CO2, with 90% humidity in MEM supplemented with 10% fetal bovine serum, 1% L-glutamine (200 mM), penicillin (100 U/mL), and streptomycin (100 μg/mL) (complete MEM medium). The evaluation of the cytotoxicity of the tested molecules was performed according to the method of Mosmann, with slight modifications. Briefly, 5.103 cells in 100 μL of the complete medium were inoculated into each well of a 96-well plate and incubated at 37 °C in a humidified 5% CO2. After 24 h incubation, 100 μL of medium with various product concentrations dissolved in DMSO (final concentration less than 0.5% v/v) was added and the plates were incubated for 72 h at 37 °C. Triplicate assays were performed for each sample. Each plate well was then microscope-examined for detecting possible precipitate formation before the medium was aspirated from the wells. A total of 100 μL of MTT (3-(4,5-dimethyl-2-thiazolyl)-2,5-diphenyl-2H-tetrazolium bromide) solution (0.5 mg/mL in medium without FCS) was then added to each well. Cells were incubated for 2 h at 37 °C. After this time, the MTT solution was removed and DMSO (100 μL) was added to dissolve the resulting blue formazan crystals. Plates were shaken vigorously (700 rpm) for 10 min. The absorbance was measured at 570 nm, with 630 nm as a reference wavelength using a TECAN Infinite F-200 Microplate Reader. DMSO was used as a blank and doxorubicin (purchased from Sigma Aldrich, St. Louis, MO, USA) was used as a positive control. Cell viability was calculated as a percentage of control (cells incubated without compound). The 50% cytotoxic concentration (CC50) was determined from the dose–response curve by using the TableCurve software 2D v.5.0. CC50 values represent the mean value calculated from three independent experiments.

In the next series the test system is HepG2. Described as above. To be noted: toxicity on HepG2 versus EC50 against the erythrocytic stage of P. falciparum. Format: cell-based, human. The protocol:
as §1

The nature of series [2]: Cytotoxicity on primary simian hepatocytes (DAPI count of host cell nuclei). It is filed as cell-based, Macaca fascicularis. Conditions: Macaca fascicularis, count of total cell nuclei, mean ± SD of three independent experiments. The protocol: (§2) Primary simian hepatocytes were isolated from liver segments collected from healthy Macaca fascicularis from CEA, Fontenay aux Roses, France. All hepatocytes were obtained using collagenase perfusion, as previously described, and were immediately cryopreserved. One day before infection, the cryopreserved hepatocytes were thawed at 37 °C and were seeded into collagen-coated (5 µg/cm^2 rat tail collagen I, Invitrogen, Carlsbad, CA, USA) 96-well plate, at a density of 80,000 cells per well. They were cultured at 37 °C in 5% CO2 in William’s E medium (Gibco, Life Technologies, Saint Aubin, France) supplemented with 10% of Fetal Bovine Serum FCIII, 5 × 10^–5 M hydrocortisone hemisuccinate (Serb Laboratories, Paris, France), 5 μg per ml bovine insulin (Sigma Aldrich, St. Louis, MO, USA), 2 mM L-glutamine, and 0.02 U per ml-0.02 μg per ml penicillin-streptomycin (Life Technologies) until infection with sporozoites.
(§3) Sporozoites of P. berghei were re-suspended in the above complete medium used for the hepatocytes culture. Simian hepatocytes were inoculated in 50 μL of complete media with 20,000 P. berghei-sporozoites/well in 96-well plates. The infected culture plates were centrifuged for 10 min at 900× g to allow fast parasite sedimentation onto the target cells and were further incubated with the serial dilution of drugs that were prepared in advance. After 3 h of incubation, cultures were washed and further incubated in a fresh medium containing the appropriate drug concentration, which were changed every 24 h during the study period. Cultured hepatocytes were fixed using 4% paraformaldehyde (PFA) for 15 min at room temperature. Host cell and parasite nuclei were labelled with 4′,6-diamidino-2-phenylindole (DAPI). Upon fixation and immunostaining, cell culture plates were analyzed in order to determine the number and size of the parasites using a Cell Insight High Content Screening platform equipped with the Studio HCS software (Thermo Fisher Scientific, Waltham, MA, USA). The parasite size reduction was calculated on the average object area using the total surface area of each selected object (μm^2). To assess the cell toxicity of drugs for hepatic cultures, fixed plates were further scanned for the DAPI signal representing host nuclei. The analysis was based on counting of total cell nuclei. GraphPad Prism 7 statistical software (GraphPad. Software, San Diego, CA, USA) was used for data analysis and graphing. All values were expressed as means and standard deviations (SD).

Series [3] has as its system P. falciparum K1. Put plainly: Blood-stage antiplasmodial evaluation (SYBR Green I fluorescence, 72 h). Format: cell-based, Plasmodium falciparum. To be noted: for P. falciparum K1 EC50 / EC50: asexual blood stages, drug-resistant K1 strain, 72 h incubation, mean ± SD of three independent experiments; for EC50: read-out: P. falciparum K1 EC50. On the procedure:
A K1 culture-adapted P. falciparum strain resistant to chloroquine, pyrimethamine, and proguanil was used in an in vitro culture. It was maintained in a continuous culture, as described previously by Trager and Jensen. Cultures were maintained in fresh A+ human erythrocytes at 2.5% hematocrit in a complete medium (RPMI 1640 with 25 mM HEPES, 25 mM NaHCO3, and 10% of A+ human serum) at 37 °C under a reduced O2 atmosphere (gas mixture: 10% O2, 5% CO2, and 85% N2). Parasitemia was maintained daily between 1 and 3%. The P. falciparum drug susceptibility test was carried out by comparing quantities of DNA in treated and control cultures of parasite in human erythrocytes, according to a SYBR Green I fluorescence-based method using a 96-well fluorescence plate reader. Compounds, previously dissolved in DMSO (final concentration less than 0.5% v/v), were incubated in a total assay volume of 200 μL (RPMI, 2% hematocrit and 0.4% parasitemia) for 72 h in a humidified atmosphere (10% O2 and 5% CO2) at 37 °C, in 96-well flat bottom plates. Duplicate assays were performed for each sample. After incubation, plates were frozen at […] for 24 h. Then, the frozen plates were thawed for 1 h at 37 °C. A total of 15 μL of each sample was transferred to 96-well flat-bottom non-sterile black plates (Greiner Bio-One, Kremsmünster, Austria) already containing 15 μL of the SYBR Green I lysis buffer (2X SYBR Green I, 20 mM Tris base pH 7.5, 20 mM EDTA, 0.008% w/v saponin, 0.08% w/v Triton X-100). Negative control treated by solvents (DMSO or H2O) and positive controls (chloroquine) were added to each set of experiments. Plates were incubated for 15 min at 37 °C and then read on a TECAN Infinite F-200 spectrophotometer with excitation and emission wavelengths at 485 and 535 nm, respectively. The concentrations of compounds required to induce a 50% decrease in parasite growth (EC50 K1) were calculated from three independent experiments.

Another series relates to P. berghei. The experiment in a line: Hepatic-stage antiplasmodial evaluation (PbGFP sporozoites in primary simian hepatocytes, high content imaging). Format: cell-based. Conditions: mean ± SD of three independent experiments.
From the text: P. berghei sporozoites constitutively expressing green fluorescent protein (PbGFP, ANKA strain) were obtained by the dissection of salivary glands from infected Anopheles stephensi mosquitoes bred and infected in the insectary facilities of UMR-S 1135 (CIMI, Paris, France). Infected salivary glands were removed by hand dissection, crushed in a potter, and filtered through a 40 μm filter for sporozoite isolation (Cell Strainer, BD BioSciences, San Jose, CA, USA). The sporozoites were counted using a disposable plastic microscope slide (KOVA).
as §2, §3

For series [4], the system named is P. falciparum K1. Further details: method as in PMID 25791675. To be noted: asexual blood stages, K1 strain; cited from earlier work.
[5] abbreviates: Plasmodium falciparum, K1, 72 h.

Consider `Cc1ccc(-c2cc3nc(NC(C)(C)C)nc(Cl)c3s2)cc1` [Compound 5, N-(Tert-butyl)-4-chloro-6-(p-tolyl)thieno[3,2-d]pyrimidin-2-amine], for which the midpoint of cytotoxicity in series [1], the CC50 at 72 h, lay at 16.4 ± 5.4 µM. For the same molecule, the selective index in the series on HepG2 is reported as 54.7. The molecule also had a CC50 in series [2] of over 100 µM. In the series with P. falciparum K1 [3], the “P. falciparum K1 EC50” value was “submicromolar range”. Also, the EC50 with P. berghei (Plasmodium berghei, Hepatocyte) is about 15 µM; in the series with P. berghei, 16.5 ± 8 µM.
In the case of `Cc1ccc(-c2cc3nc(NC(C)(C)C)nc(I)c3s2)cc1` [Compound 6, N-(Tert-butyl)-4-iodo-6-(p-tolyl)thieno[3,2-d]pyrimidin-2-amine], the CC50 at 72 h in series [1] is 29 ± 5.5 µM. In series [2], this molecule displayed a CC50 of over 100 µM. Also, the “P. falciparum K1 EC50” value in the series with P. falciparum K1 [3] is on record as “submicromolar range”. The molecule also came in with an EC50 in the series on P. berghei (Plasmodium berghei, Hepatocyte) of 26.7 ± 5.6 µM.
`Cc1ccc(-c2cc3nc(NC(C)(C)C)nc(N)c3s2)cc1` [Compound 10a, N^2-(Tert-butyl)-6-(p-tolyl)thieno[3,2-d]pyrimidine-2,4-diamine]: the CC50 at 72 h in series [1] stood at 12.1 ± 4.1 µM. The same molecule registered a CC50 in series [2] of over 50 µM. The EC50 was under 2 µM in the series on P. falciparum K1 [3] (setting [5]); 1.4 ± 0.6 µM in the series with P. falciparum K1 [3]; 70.7 ± 9.7 µM in the series with P. berghei (Plasmodium berghei, Hepatocyte). The “P. falciparum K1 EC50” value in the series on P. falciparum K1 [3] is listed as “micromolar range”. Besides, the “P. berghei EC50” value with P. berghei is recorded as “not active”.
The molecule `CNc1nc(NC(C)(C)C)nc2cc(-c3ccc(C)cc3)sc12` [Compound 10c, N^2-(tert-butyl)-N^4-methyl-6-(p-tolyl)thieno[3,2-d]pyrimidine-2,4-diamine] gave a CC50 at 72 h in series [1] of 3.7 ± 0.6 µM. The molecule further gave a CC50 in series [2] of 31.5 ± 6.8 µM. Moreover, the EC50 in the series with P. falciparum K1 [3] (setting [5]) is 1 ± 0.4 µM; in the series on P. berghei (Plasmodium berghei, Hepatocyte), about 5 µM; in the series with P. berghei, 4.6 ± 5.7 µM. Besides, the “P. falciparum K1 EC50” value in the series with P. falciparum K1 [3] is on record as “micromolar range”. The “P. berghei EC50” value with P. berghei is on record as “most active”.
For `CCCNc1nc(NC(C)(C)C)nc2cc(-c3ccc(C)cc3)sc12` [Compound 10d, N^2-(tert-butyl)-N^4-propyl-6-(p-tolyl)thieno[3,2-d]pyrimidine-2,4-diamine], the CC50 at 72 h in series [1] turned out to be 3.7 ± 0.3 µM. In series [2], half-maximal cytotoxicity (CC50) was put at 22 ± 2.8 µM. For the same molecule, the EC50 in the series with P. falciparum K1 [3] (setting [5]) was 1.1 ± 0.2 µM; with P. berghei (Plasmodium berghei, Hepatocyte), about 5 µM; in the series on P. berghei, 7.1 ± 1.4 µM. Besides, in the series with P. falciparum K1 [3], the “P. falciparum K1 EC50” value is reported as “micromolar range”.
Consider `Cc1ccc(-c2cc3nc(NC(C)(C)C)nc(NCCCCO)c3s2)cc1` [Compound 10f, 4-((2-(tert-butylamino)-6-(p-tolyl)thieno[3,2-d]pyrimidin-4-yl)amino)butan-1-ol], for which the CC50 at 72 h in series [1] was found to be 2.9 ± 1.1 µM. This molecule gave a CC50 in series [2] of 17.7 ± 1.9 µM. In addition, the EC50 in the series with P. falciparum K1 [3] (setting [5]) was 0.7 ± 0.1 µM; in the series on P. berghei (Plasmodium berghei, Hepatocyte), about 15 µM; with P. berghei, 14.1 ± 1.9 µM. Besides, the “P. falciparum K1 EC50” value in the series with P. falciparum K1 [3] is recorded as “micromolar range”.
Regarding `Cc1ccc(-c2cc3nc(NC(C)(C)C)nc(-c4cccnc4)c3s2)cc1` [Compound 11f, N-(tert-butyl)-4-(pyridin-3-yl)-6-(p-tolyl)thieno[3,2-d]pyrimidin-2-amine], the EC50 with P. falciparum K1 [3] (setting [5]) is over 10 µM.
Same read-out and setting: as for `Cc1ccc(-c2cc3nc(NC(C)(C)C)nc(C#Cc4ccccc4)c3s2)cc1` [Compound 12a, N-tert-butyl-6-(4-methylphenyl)-4-(phenylethynyl)thieno[3,2-d]pyrimidin-2-amine], the figure is 20.1 ± 4.1 µM; as for `Cc1ccc(-c2cc3nc(NC(C)(C)C)nc(C#CC4CC4)c3s2)cc1` [Compound 12b, N-tert-butyl-4-(cyclopropylethynyl)-6-(4-methylphenyl)thieno[3,2-d]pyrimidin-2-amine], 15.7 ± 2.4 µM.
The same measure, in the same setting: as for `Cc1ccc(-c2cc3nc(NC(C)(C)C)nc(C#CCCO)c3s2)cc1` [Compound 12c, 4-[2-tert-butylamino-6-(4-methylphenyl)thieno[3,2-d]pyrimidin-4-yl]but-3-yn-1-ol], the figure is 14.2 ± 2.8 µM.
As for `Cc1ccc(-c2cc3nc(NC(C)(C)C)ncc3s2)cc1` [Compound 13, N-(Tert-butyl)-6-(p-tolyl)thieno[3,2-d]pyrimidin-2-amine], the EC50 in the series on P. falciparum K1 [3] (setting [5]) was determined as 26.1 ± 2.2 µM. Further, the “P. falciparum K1 EC50” value with P. falciparum K1 [3] is “inactive”.
With `C[C@H]1c2cccc(O)c2C(=O)C2=C(O)[C@]3(O)C(=O)C(C(N)=O)=C(O)[C@@H](N(C)C)[C@@H]3[C@@H](O)[C@@H]21` [Doxycycline], the half-maximal effective concentration (EC50) in the series on P. falciparum K1 [4] is 5 µM.
Consider “N-(tert-butyl)-4-(1-methylhydrazinyl)-6-(p-tolyl)-3,4-dihydrothieno[3,2-d]pyrimidin-2-amine [Compound 10b]”, for which, in the series on P. falciparum K1 [3], the EC50 amounted to 2.2 ± 0.3 µM. Besides, the IC50 with P. falciparum K1 [3] (erythrocytic stage P. falciparum K1, read-out: IC50 (activity on Pf. K1)) was about 2 µM.
